Assay results reported in paper PMC6355318 (Bioorganic & Medicinal Chemistry Letters, 2019).
Converted amounts (≈) assume the structure as drawn.

How the values were obtained:
[1] = system: P. falciparum; test: blood stage hypoxanthine incorporation (HXI) cell-based assay; conditions: Plasmodium falciparum, read-out: Pf HXI pEC50 (converted)
Source text: [23] For full details on both biochemical assay and anti-malarial hypoxanthine incorporation (cell based) assay procedures, see reference 14.

[2] = molecular target: PfPKG (Plasmodium falciparum, UniProt Q8I719); test: biochemical; assay type: biochemical; conditions: for IC50: recombinant kinase, read-out: PfPKG pIC50 (converted); for LLE: LLE (pIC50 - mLogD)
[3] = Measured logD (shake flask); assay type: physicochemical; conditions: octanol/PBS
Experimental: LogD measurements were carried out using the shake flask method. […] The ratios of areas of the peaks were used to calculate the LogD in accordance with the equation:
LogD = Log10(Area-TL/Area BL)

[4] = % remaining after 30 mins, mouse liver microsomes, 1 μM
Experimental: Microsomal turnover data was obtained using mouse liver microsomes (MLM) obtained from BD Biosciences. The compounds are pre-incubated at 37 °C for 5 minutes with the microsomes and the reaction was initiated by adding an equal volume of NADPH generating solution, also obtained from BD Biosciences. The final compound concentration in the incubation is 1 μM, and the microsomal protein concentration is 0.2 mg/mL. A sample is taken at t=0 and quenched with 2x volume of ice-cold methanol containing an internal standard reference compound (carbamazepine). The reaction is agitated at 37 °C for 30 minutes, when a further sample was taken and quenched in an identical fashion. The samples were centrifuged at 10000 rpm for 10 minutes and the supernatant taken for analysis in triplicate by LC-MS/MS (Agilent Technologies G6410 series, triple quadrupole with MM-ESI ion source) using optimised multiple reaction monitoring (MRM) scans and a standard column gradient on an Acquity UPLC BEH C8 1.7μm column, running acetonitrile and water with 0.05% acetic acid as the mobile phase. The % turnover is obtained by calculating the percentage difference of the peak areas, normalised to the internal standard, at t=0 and t=30. Verapamil is used as the standard compound for this assay.

[5] = passive permeability, 5 hours at room temperature
[6] = Kinetic solubility; assay type: physicochemical; conditions: PBS pH 7.4 with 2% DMSO, PBS pH7.4, 98:2 PBS:DMSO, 90 minutes, target 200 μM
Experimental: Each compound was run in triplicate on the same plate with two standard compounds, verapamil and ketoconazole, included per plate. The filtration plate was shaken at 500 rpm for 90 minutes and then filtered under vacuum. The filtrate was sampled and diluted with a DMSO:PBS mixture in a flat bottomed UV plate to give a solution with a composition of PBS:DMSO 80:20. […] The UV absorbance for these solutions was read across 230-400 nm at 1 nm intervals using a TECAN Safire II plate reader and a suitable UV wavelength chosen around the UV maximum of each compound.

Chain of PfPKG (Q8I719 whole entry): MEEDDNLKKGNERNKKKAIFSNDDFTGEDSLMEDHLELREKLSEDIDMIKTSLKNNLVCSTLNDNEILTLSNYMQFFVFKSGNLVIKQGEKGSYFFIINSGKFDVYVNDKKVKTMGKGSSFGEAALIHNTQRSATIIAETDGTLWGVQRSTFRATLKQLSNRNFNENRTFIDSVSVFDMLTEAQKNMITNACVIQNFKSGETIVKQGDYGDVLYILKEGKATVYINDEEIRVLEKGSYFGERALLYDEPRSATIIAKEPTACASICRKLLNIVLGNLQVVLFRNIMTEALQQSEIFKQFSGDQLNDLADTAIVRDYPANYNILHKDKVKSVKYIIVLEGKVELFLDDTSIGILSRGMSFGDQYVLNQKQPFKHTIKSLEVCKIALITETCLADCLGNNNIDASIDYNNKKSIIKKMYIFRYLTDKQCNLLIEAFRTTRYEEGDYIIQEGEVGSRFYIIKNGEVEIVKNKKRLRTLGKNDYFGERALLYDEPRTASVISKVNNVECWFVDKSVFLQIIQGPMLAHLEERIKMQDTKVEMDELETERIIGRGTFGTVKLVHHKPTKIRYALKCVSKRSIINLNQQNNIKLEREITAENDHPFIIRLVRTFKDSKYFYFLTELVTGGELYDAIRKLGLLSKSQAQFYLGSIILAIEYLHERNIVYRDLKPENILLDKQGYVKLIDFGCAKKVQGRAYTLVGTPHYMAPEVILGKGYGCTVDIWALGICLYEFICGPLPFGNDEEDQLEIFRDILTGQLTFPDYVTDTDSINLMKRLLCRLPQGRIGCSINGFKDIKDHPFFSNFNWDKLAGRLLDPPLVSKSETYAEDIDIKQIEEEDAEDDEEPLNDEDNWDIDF

Row | Compound | EC50 [1] [nM] | IC50 [2] [nM] | LLE [2] | fold less biochemically active ([2]; compared to 2) [fold] | mLogD [3] | MLM % rem [4] [%] | PAMPA [5] [×10⁻⁶ cm/s] | solubility kinetic at 1.5 h, 200 µM [6] [µM]
1 | CN(C)Cc1ccn2c(-c3ccnc(N)n3)c(-c3ccc(F)cc3)nc2c1 [Compound 2, reference compound] | 363 | 2 | – | – | – | – | – | –
2 | CN(C)Cc1ccn2c(-c3cc(N)ncn3)c(-c3ccc(F)cc3)nc2c1 [Compound 5] | – | 87.1 | 4.7 | – | – | – | – | –
3 | CN(C)Cc1ccn2c(-c3ccncn3)c(-c3ccc(F)cc3)nc2c1 [Compound 7, reference compound] | – | 12 | 5.9 | – | – | – | – | –
4 | CN(C)Cc1ccn2c(-c3ccncc3)c(-c3ccc(F)cc3)nc2c1 [Compound 8] | – | 77.6 | 4.2 | ~40 | – | – | – | –
5 | CN(C)Cc1ccn2c(-c3cn[nH]c3)c(-c3ccc(F)cc3)nc2c1 [Compound 9] | – | 120 | 5.1 | – | – | – | – | –
6 | CN(C)Cc1ccn2c(-c3ccnc(N)c3)c(-c3ccc(F)cc3)nc2c1 [Compound 10] | – | 52.5 | 5.3 | – | – | – | – | –
7 | CN(C)Cc1ccn2c(-c3ccnc(Nc4ccc(N5CCNCC5)cc4)c3)c(-c3ccc(F)cc3)nc2c1 [Compound 11] | – | 257 | – | – | – | – | – | –
8 | CN(C)CCCNc1nccc(-c2c(-c3ccc(F)cc3)nc3ccccn23)n1 [Compound 14] | – | 851 | – | – | 1.8 | 62 | 8.2 | –
9 | Fc1ccc(-c2nc3ccccn3c2-c2ccnc(NC3CCOCC3)n2)cc1 [Compound 15] | – | 132 | – | – | 1.8 | 84 | 14.5 | –
10 | CN1CCN(c2ccc(Nc3nccc(-c4c(-c5ccc(F)cc5)nc5ccccn45)n3)cc2)CC1 [Compound 16] | 115 | – | – | – | 4.0 | 65 | 0 | 9 (≈ 4.32 µg/mL)
11 | CN1CCC(c2ccc(Nc3nccc(-c4c(-c5ccc(F)cc5)nc5ccccn45)n3)cc2)CC1 [Compound 17] | 158 | 5.01 | – | – | 3.3 | 55 | 0 | –
12 | CN1CCC(n2cc(Nc3nccc(-c4c(-c5ccc(F)cc5)nc5ccccn45)n3)cn2)CC1 [Compound 18] | 575 | 100 | – | – | 2.7 | 37 | 12.4 | 237 (≈ 111 µg/mL)
13 | CN(C)Cc1cc2nc(-c3ccc(F)cc3)c(-c3ccnc(N)n3)n2cn1 [Compound 19] | 3720 | 55 | – | – | 2.1 | 59 | 5.8 | –
14 | CN(C)Cc1ccn2c(-c3ccnc(N)n3)c(-c3ccc(F)cc3)nc2n1 [Compound 20] | 4070 | 81.3 | – | – | 2.1 | 67 | 11.8 | –
15 | CN(C)Cc1ccc2c(c1)nc(-c1ccc(F)cc1)n2-c1ccnc(N)n1 [Compound 23] | – | 30.9 | – | – | 1.2 | 78 | 3.2 | –
16 | CN(C)CCNc1ccc2nc(-c3ccc(F)cc3)c(-c3ccnc(N)n3)n2n1 [Compound 26] | – | 407 | – | – | 1.6 | 68 | 1 | –
17 | CN(C)Cc1ccc2c(-c3ccnc(N)n3)c(-c3ccc(F)cc3)nn2c1 [Compound 29] | 513 | 4.07 | – | – | 2.5 | 22 | 18.5 | –
